Reference: publication PMC10387993, “New pyrimidine-N-β-D-glucosides: synthesis, biological evaluation, and molecular docking investigations” (Turkish Journal of Chemistry, 2023)
Converted amounts (≈) assume the structure as drawn. Where two headings read alike, the source gives them in different places.

Experiments:
Type in all cases: cell-based
A549 = assay: cells; details: Homo sapiens; for LC50 (concentration causing 50% net cell loss): A549, read-out: LC50; for GI50 / IC50 / IC (total growth inhibition): A549, MTT; for IC50: read-out: IC50; for IC (total growth inhibition): read-out: TGI
How it was run: (§1)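 Seed ~1 × 10^4 cells/well; final 200 μL. Add MTT in phenol-red-free RPMI 1640, 4 h. Solubilise formazan in DMSO + Sorenson's buffer, 30 min RT. Read 560/690 nm. ≥3 repeats.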

HeLa = assay: cells; details: Homo sapiens; for GI50 / IC50 / IC (total growth inhibition): MTT; for IC50: read-out: IC50; for IC (total growth inhibition): read-out: TGI; for LC50 (concentration causing 50% net cell loss): read-out: LC50
How it was run: as §1

in vitro = details: human, LC50
How it was run: as §1

normal FL cells = assay: cells; details: FL normal cells, MTT; for IC50: read-out: IC50; for IC (total growth inhibition): read-out: TGI
How it was run: as §1

[1] = LDH cytotoxic activity assay, HeLa; details: human, HeLa cells
How it was run: (§2)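 Cells grown in DMEM or RPMI 1640 with 10% FBS were seeded at about 5 × 10^3 per well in triplicate. They were exposed to 25, 50, 75 and 100 μg/mL compound for 24 h at 37 °C, 5% CO2, and LDH release was measured by absorbance at 492–630 nm.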

[2] = LDH cytotoxic activity assay, HT29; details: human, HT29 cells; for cytotoxicity at 24 h, 25 μg/mL: HT29, 25 μg/mL; for cytotoxicity at 24 h, 50 μg/mL: HT29, 50 μg/mL; for cytotoxicity at 24 h, 75 μg/mL: HT29, 75 μg/mL; for cytotoxicity at 24 h, 100 μg/mL: HT29, 100 μg/mL
How it was run: as §2

[3] = system: A. actinomycetemcomitans ATCC 33384; assay: Microdilution MIC assay; details: Aggregatibacter actinomycetemcomitans, ATCC33384; A. actinomycetemcomitans ATCC 33384, 24 h at 35 °C
How it was run: (§3)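 Visually scored microwell dilution test (35 °C, 24 h), endpoint no turbidity.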

E. coli ATCC 25922 = assay: Microdilution MIC assay; details: Escherichia coli, ATCC25922; E. coli ATCC 25922, 24 h at 35 °C
How it was run: as §3

E. coli ESBL ATCC 35218 = assay: Microdilution MIC assay; details: Escherichia coli, ATCC35218; E. coli ESBL ATCC 35218, 24 h at 35 °C
How it was run: as §3

E. faecalis ATCC 29212 = assay: Microdilution MIC assay; details: E. faecalis ATCC 29212, 24 h at 35 °C
How it was run: as §3

[4] = system: E. faecalis VRE ATCC 19433; assay: Microdilution MIC assay; details: Enterococcus faecalis; E. faecalis VRE ATCC 19433, 24 h at 35 °C
How it was run: as §3

[5] = system: P. aeruginosa AGME ATCC 27853; assay: Microdilution MIC assay; details: Pseudomonas aeruginosa, ATCC27853; P. aeruginosa AGME ATCC 27853, 24 h at 35 °C
How it was run: as §3

S. aureus ATCC 25923 = assay: Microdilution MIC assay; details: Staphylococcus aureus, ATCC25923, 24 h, S. aureus ATCC 25923, 24 h at 35 °C; read-out: MIC
How it was run: as §3

[6] = system: S. aureus MRSA ATCC 46300; assay: Microdilution MIC assay; details: Staphylococcus aureus; S. aureus MRSA ATCC 46300, 24 h at 35 °C; read-out: MIC
How it was run: as §3

[7] = system: S. aureus MSSA ATCC 29213; assay: Microdilution MIC assay; details: S. aureus MSSA ATCC 29213, 24 h at 35 °C
How it was run: as §3

S. gordonii NCTC 7870 = assay: Microdilution MIC assay; details: Streptococcus gordonii, NCTC7870; S. gordonii NCTC 7870, 24 h at 35 °C
How it was run: as §3

S. mutans ATCC 35668 = assay: Microdilution MIC assay; details: S. mutans ATCC 35668, 24 h at 35 °C
How it was run: as §3

[8] = Enterococcus faecalis, ATCC29212, 24 h, read-out: MIC
[9] = Staphylococcus aureus, 24 h, read-out: MIC
[10] = Streptococcus mutans, ATCC35668, 24 h, read-out: MIC

Structure (SMILES) | LC50 (concentration causing 50% net cell loss) (A549) [mg/L] | GI50 (A549) [mg/L] | IC50 (A549) [mg/L] | IC (total growth inhibition) (A549) [µg/mL] | GI50 (HeLa) [mg/L] | IC50 (HeLa) [mg/L] | IC (total growth inhibition) (HeLa) [µg/mL] | LC50 (concentration causing 50% net cell loss) (HeLa) [mg/L] | LC50 (concentration causing 50% net cell loss) (in vitro) [mg/L] | GI50 (normal FL cells) [mg/L] | IC50 (normal FL cells) [mg/L] | IC (total growth inhibition) (normal FL cells) [µg/mL] | cytotoxicity at 24 h, 25 μg/mL [1] [%] | cytotoxicity at 24 h, 50 μg/mL [1] [%] | cytotoxicity at 24 h, 75 μg/mL [1] [%] | cytotoxicity at 24 h, 100 μg/mL [1] [%] | cytotoxicity at 24 h, 25 μg/mL [2] [%] | cytotoxicity at 24 h, 50 μg/mL [2] [%] | cytotoxicity at 24 h, 75 μg/mL [2] [%] | cytotoxicity at 24 h, 100 μg/mL [2] [%] | further results
Cc1ccccc1-c1cc(-c2ccccn2)nc(N[C@@H]2O[C@H](CO)[C@@H](O)[C@H](O)[C@H]2O)n1 [Compound 1, N-[4-(2-methylphenyl)-6-pyridin-2-ylpyrimidin-2-yl]-β-D-glucopyranosylamine] | > 500 | 67.8 (≈ 160 µM) | > 500 | > 500 | 10.5 (≈ 24.8 µM) | 54.4 (≈ 128 µM) | 35.1 | 218 (≈ 514 µM) | > 500 | 3.1 (≈ 7.3 µM) | 77.4 (≈ 182 µM) | 81.6 | 30.2 | 47 | 65.3 | 88.7 | 29.3 | 48 | 68.9 | 83.7 | MIC [3]: 500 mg/L (≈ 1180 µM); MIC (E. coli ATCC 25922): > 1000 mg/L; MIC (E. coli ESBL ATCC 35218): > 1000 mg/L; MIC (E. faecalis ATCC 29212; [8]): 1000 mg/L (≈ 2360 µM); MIC [4]: > 1000 mg/L; MIC [5]: > 1000 mg/L; MIC (S. aureus ATCC 25923): 500 mg/L (≈ 1180 µM); MIC [6]: 1000 mg/L (≈ 2360 µM); MIC [7, 9]: 500 mg/L (≈ 1180 µM); MIC (S. gordonii NCTC 7870): 250 mg/L (≈ 589 µM); MIC (S. mutans ATCC 35668): 62.5 mg/L (≈ 147 µM); MIC (S. mutans ATCC 35668; [10]): 62.5 to 125 mg/L (≈ 147 to 294 µM)
CC(=O)OC[C@H]1O[C@@H](Nc2nc(-c3ccncc3)cc(-c3ccccc3C)n2)[C@H](OC(C)=O)[C@@H](OC(C)=O)[C@@H]1OC(C)=O [Compound 12, 2,3,4,6-tetra-O-acetyl-N-[4-(2-methylphenyl)-6-pyridin-4-ylpyrimidin-2-yl]-β-D-glucopyranosylamine] | > 500 | > 500 | > 500 | > 500 | > 500 | > 500 | > 500 | > 500 | > 500 | 3.68 (≈ 6.21 µM) | > 500 | > 500 | 18.8 | 30.8 | 42.6 | 49.6 | 30.7 | 41.9 | 62.6 | 77.6 | MIC [3]: > 1000 mg/L; MIC (E. coli ATCC 25922): > 1000 mg/L; MIC (E. coli ESBL ATCC 35218): > 1000 mg/L; MIC (E. faecalis ATCC 29212; [8]): 250 mg/L (≈ 422 µM); MIC [4]: 1000 mg/L (≈ 1690 µM); MIC [5]: > 1000 mg/L; MIC (S. aureus ATCC 25923): > 1000 mg/L; MIC [6]: 500 mg/L (≈ 844 µM); MIC [7, 9]: 1000 mg/L (≈ 1690 µM); MIC (S. gordonii NCTC 7870): > 1000 mg/L; MIC (S. mutans ATCC 35668): 62.5 mg/L (≈ 105 µM); MIC (S. mutans ATCC 35668; [10]): 62.5 to 125 mg/L (≈ 105 to 211 µM)
Cc1cccc(-c2cc(-c3ccccn3)nc(N[C@@H]3O[C@H](CO)[C@@H](O)[C@H](O)[C@H]3O)n2)c1 [Compound 4, N-[4-(3-methylphenyl)-6-pyridin-2-ylpyrimidin-2-yl]-β-D-glucopyranosylamine] | > 500 | 19.4 (≈ 45.8 µM) | > 500 | > 500 | 21.9 (≈ 51.6 µM) | 52.2 (≈ 123 µM) | 46 | 116 (≈ 272 µM) | > 500 | 6.77 (≈ 15.9 µM) | 78.1 (≈ 184 µM) | 79.8 | 26.9 | 64.3 | 77.1 | 97.2 | 28.2 | 35.7 | 62.6 | 74.9 | MIC [3]: 250 mg/L (≈ 589 µM); MIC (E. coli ATCC 25922): > 1000 mg/L; MIC (E. coli ESBL ATCC 35218): > 1000 mg/L; MIC (E. faecalis ATCC 29212; [8]): 250 mg/L (≈ 589 µM); MIC [4]: > 1000 mg/L; MIC [5]: > 1000 mg/L; MIC (S. aureus ATCC 25923): 250 mg/L (≈ 589 µM); MIC [6]: 500 mg/L (≈ 1180 µM); MIC [7, 9]: 250 mg/L (≈ 589 µM); MIC (S. gordonii NCTC 7870): 250 mg/L (≈ 589 µM); MIC (S. mutans ATCC 35668): 125 mg/L (≈ 294 µM); MIC (S. mutans ATCC 35668; [10]): 62.5 to 125 mg/L (≈ 147 to 294 µM)
Cc1ccc(-c2cc(-c3ccccn3)nc(N[C@@H]3O[C@H](CO)[C@@H](O)[C@H](O)[C@H]3O)n2)cc1 [Compound 7, N-[4-(4-methylphenyl)-6-pyridin-2-ylpyrimidin-2-yl]-β-D-glucopyranosylamine] | > 500 | 125 (≈ 295 µM) | > 500 | > 500 | 7.17 (≈ 16.9 µM) | 31.9 (≈ 75 µM) | 21.6 | 120 (≈ 284 µM) | > 500 | 6.1 (≈ 14.4 µM) | 255 (≈ 600 µM) | 266 | 11.9 | 25.1 | 38.4 | 50.7 | 26 | 40.7 | 75.9 | 91.8 | MIC [3]: 250 mg/L (≈ 589 µM); MIC (E. coli ATCC 25922): > 1000 mg/L; MIC (E. coli ESBL ATCC 35218): > 1000 mg/L; MIC (E. faecalis ATCC 29212; [8]): 250 mg/L (≈ 589 µM); MIC [4]: 1000 mg/L (≈ 2360 µM); MIC [5]: > 1000 mg/L; MIC (S. aureus ATCC 25923): 250 mg/L (≈ 589 µM); MIC [6]: 250 mg/L (≈ 589 µM); MIC [7, 9]: 250 mg/L (≈ 589 µM); MIC (S. gordonii NCTC 7870): 500 mg/L (≈ 1180 µM); MIC (S. mutans ATCC 35668): 125 mg/L (≈ 294 µM); MIC (S. mutans ATCC 35668; [10]): 62.5 to 125 mg/L (≈ 147 to 294 µM)
CC(=O)OC[C@H]1O[C@@H](Nc2nc(-c3cccc(C)c3)cc(-c3ccccn3)n2)[C@H](OC(C)=O)[C@@H](OC(C)=O)[C@@H]1OC(C)=O [Compound 13, 2,3,4,6-tetra-O-acetyl-N-[4-(3-methylphenyl)-6-pyridin-2-ylpyrimidin-2-yl]-β-D-glucopyranosylamine] | > 500 | > 500 | > 500 | > 500 | 4.48 (≈ 7.56 µM) | 60.4 (≈ 102 µM) | 17.3 | 224 (≈ 378 µM) | > 500 | 1.63 (≈ 2.75 µM) | 18.2 (≈ 30.7 µM) | 19.1 | 18.1 | 28 | 42.8 | 50.9 | 31.7 | 45.5 | 66.4 | 79.2 | MIC [3]: > 1000 mg/L; MIC (E. coli ATCC 25922): > 1000 mg/L; MIC (E. coli ESBL ATCC 35218): > 1000 mg/L; MIC (E. faecalis ATCC 29212): 31.25 mg/L (≈ 52.7 µM); MIC (E. faecalis ATCC 29212; [8]): 31.2 to 125 mg/L (≈ 52.7 to 211 µM); MIC [4]: 1000 mg/L (≈ 1690 µM); MIC [5]: > 1000 mg/L; MIC (S. aureus ATCC 25923): 500 mg/L (≈ 844 µM); MIC [6]: 500 mg/L (≈ 844 µM); MIC [7]: 125 mg/L (≈ 211 µM); MIC [7, 9]: 62.5 to 125 mg/L (≈ 105 to 211 µM); MIC (S. gordonii NCTC 7870): > 1000 mg/L; MIC (S. mutans ATCC 35668): 125 mg/L (≈ 211 µM); MIC (S. mutans ATCC 35668; [10]): 62.5 to 125 mg/L (≈ 105 to 211 µM)
